# Experimental data reported in patent publication EP4778516A1, “CALCIFICATION ENHANCER FOR OSTEOBLAST MC3T3-E1 CELL” (Watanabe Oyster Laboratory Co., Ltd., priority 2023, dated 2025).
# Key:
# MC3T3-E1 cells = experiment: Effects of conditioned medium of LPS-stimulated RAW264.7 cells on MC3T3-E1 cells; assay type: cell-based, mouse
# Method: A conditioned medium was obtained by culturing RAW264.7 cells.
# RAW264.7 cells (1×10^5 cells/ml per well in a 24-well plate) were cultured for 3 days after reaching subconfluence in DMEM containing 10% FBS and 1% P/S in the presence or absence of LPS (concentration in the medium: 100 ng/ml). After the cells were cultured, the medium (conditioned medium) was collected.
# To evaluate the effects of the conditioned medium on proliferation of MC3T3-E1 cells, MC3T3-E1 cells were cultured for 3 days in a-MEM containing 10% FBS and 1% P/S. The cells were then cultured for 3 days using either the conditioned medium (1 ml, control) cultured without LPS or the conditioned medium (0.25 or 0.50 ml per well, adjusted to 1 ml with normal medium) cultured with LPS in the presence or absence of DHMBA (1 or 10 mM).
# Further, to examine the effects on cell death of MC3T3-E1 cells, the cells (1×10^5 cells/ml per well) were cultured for 3 days in a-MEM containing 10% FBS and 1% P/S. After reaching subconfluence, the medium was replaced. The cells were then further cultured for 48 hours in either the normal medium, the conditioned medium (1 ml) cultured without LPS, or the conditioned medium (0.25 or 0.50 ml per well, adjusted to 1 ml with normal medium) with either a reagent vehicle (1% ethanol as final concentration) or DHMBA (1 or 10 mM). After culture, the cells were detached from each culture well, and cell numbers were counted in the same manner as described above.
# Further, the effects of Bay 11-7082, which is an NF-kB signaling inhibitor, on proliferation or cell death of MC3T3-E1 cells were investigated. First, to examine the effects of Bay 11-7082 on proliferation of MC3T3-E1 cells, the cells (1×10^5 cells/1 ml per well in a 24-well plate) were cultured for 3 days until reaching subconfluence in the presence of 10% FBS, 1% P/S, and either a reagent vehicle (1% ethanol as final concentration) or Bay 11-7082 (1, 10, 50, 100, or 1000 nM). Next, MC3T3-E1 cells were cultured for 3 days in the presence of the conditioned medium (0.5 ml per well, adjusted to a total of 1 ml with normal medium) with or without Bay 11-7082 (1 or 10 nM) in the presence or absence of DHMBA (10 mM).
# In another experiment, to evaluate the effects of Bay 11-7082 on cell death of MC3T3-E1, the cells (1×10^5 cells/1 ml per well in a 24-well plate) were cultured in a-MEM containing 10% FBS and 1% P/S. After culturing for 3 days until reaching subconfluence, the medium was replaced with a-MEM (1 ml) containing either the normal medium or the conditioned medium prepared by adding the normal medium to 0.5 ml per well of the conditioned medium, adjusted to a total volume of 1 ml. The cells were then further cultured for 48 hours in the presence of Bay 11-7082 (1 or 10 nM), or Bay 11-7082 (10 nM) in combination with DHMBA (10 mM). After culture, the cells were detached from each culture well, and cell numbers were counted as described above.
# NF-kB = NF-kB reporter assay (luciferase); assay type: cell-based, mouse; settings: Fig. 8C
# Method: An NF-kB-responsive luciferase reporter assay (pNF-kB-Luc, BD Biosciences) was performed according to the method previously described by the present inventors. MC3T3-E1 cells (2×10^4 cells per well in […] in a 96-well plate) were cultured for 24 hours in a-MEM containing 10% FBS and 1% P/S. After culture, the medium was removed, and the cells were washed twice with a-MEM without FBS or antibiotics. a-MEM ([…]) without FBS or antibiotics was then added to each well containing the cells. A reporter plasmid or an empty vector control (pGL3-Basic) was transfected into MC3T3-E1 cells using Lipofectamine 2000 Reagent (Invitrogen) in a-MEM without FBS or antibiotics. Five hours later, the medium was replaced with a-MEM containing 10% FBS and 1% P/S, and the cells were stimulated with TNF-a (1 or 10 ng/ml) for 24 hours. In parallel, the cells were cultured with either a reagent vehicle (1% ethanol as final concentration) or DHMBA (1 or 10 mM). After culture, the cells were extracted with Passive Lysis Buffer (Promega Corp., Madison, WI), and luciferase activity was measured using a Luciferase Assay System (Promega Corp.) with a microplate reader (Turner Designs, Inc., Sunnyvale, CA, USA). Equal transfection efficiency among all plasmids was validated by using the luciferase reporter plasmid pRL-SV40 (Promega Corp., Madison, WI).
smiles,measurement,setting,value
"COc1c(O)cc(CO)cc1O [DHMBA, 3,5-dihydroxy-4-methoxybenzyl alcohol]","suppressive effect of DHMBA on conditioned-medium-induced suppression of proliferation, in combination with Bay 11-7082",MC3T3-E1 cells; DHMBA in the presence of Bay 11-7082,not further enhanced
same,enhancement of death of MC3T3-E1 cells by the conditioned medium,"MC3T3-E1 cells; conditioned medium 0.5 ml, DHMBA 1 or 10 mM, 48 hours, Fig. 6B",suppressed
same,inhibition of proliferation of MC3T3-E1 cells by the conditioned medium,"MC3T3-E1 cells; conditioned medium with LPS stimulation, DHMBA 1 or 10 mM, 3 days, Fig. 6A",prevented
same,NF-kB promoter activity in MC3T3-E1 cells,NF-kB; DHMBA in the absence of TNF-a,reduced
same,TNF-a-induced increase of NF-kB promoter activity in MC3T3-E1 cells,"NF-kB; TNF-a 1 or 10 ng/ml plus, 24 hours",suppressed
